Test results: ChEMBL document CHEMBL2331144, “Synthesis and anticancer activity of analogues of phenstatin, with a phenothiazine A-ring, as a new class of microtubule-targeting agents” (Bioorg Med Chem Lett, 2013)

Assays:
NCI-H522 = experiment: Growth inhibition of human NCI-H522 cells after 48 hrs by sulforhodamine B assay; type: functional; details: NCI-H522, 48 h
COLO 205 = experiment: Growth inhibition of human COLO205 cells after 48 hrs by sulforhodamine B assay; type: functional; details: COLO 205, 48 h
NCI-H460 = experiment: Growth inhibition of human NCI-H460 cells after 48 hrs by sulforhodamine B assay; type: functional; details: NCI-H460, 48 h
NCI-H23 = experiment: Growth inhibition of human NCI-H23 cells after 48 hrs by sulforhodamine B assay; type: functional; details: NCI-H23, 48 h
HOP-62 = experiment: Growth inhibition of human HOP62 cells after 48 hrs by sulforhodamine B assay; type: functional; details: HOP-62, 48 h
A549 = experiment: Growth inhibition of human A549/ATCC cells after 48 hrs by sulforhodamine B assay; type: functional; details: A549, 48 h
SR = experiment: Growth inhibition of human SR cells after 48 hrs by sulforhodamine B assay; type: functional
RPMI-8226 = experiment: Growth inhibition of human RPMI8226 cells after 48 hrs by sulforhodamine B assay; type: functional; details: RPMI-8226, 48 h
MOLT-4 = experiment: Growth inhibition of human MOLT4 cells after 48 hrs by sulforhodamine B assay; type: functional; details: MOLT-4, 48 h
K562 = experiment: Growth inhibition of human K562 cells after 48 hrs by sulforhodamine B assay; type: functional; details: K562, 48 h
HL-60(TB) = experiment: Growth inhibition of human HL-60(TB) cells after 48 hrs by sulforhodamine B assay; type: functional; details: HL-60, 48 h
CCRF-CEM = experiment: Growth inhibition of human CCRF-CEM cells after 48 hrs by sulforhodamine B assay; type: functional
Ovis aries = species on record: Ovis aries; experiment: Inhibition of sheep brain tubulin polymerization at 100 uM using DAPI by fluorimetry
T47D = experiment: Growth inhibition of human T47D cells after 48 hrs by sulforhodamine B assay; type: functional
MDA-MB-468 = experiment: Growth inhibition of human MDA-MB-468 cells after 48 hrs by sulforhodamine B assay; type: functional; details: MDA-MB-468, 48 h
BT-549 = experiment: Growth inhibition of human BT549 cells after 48 hrs by sulforhodamine B assay; type: functional; details: BT-549, 48 h
[1] = Growth inhibition of human Hs 578T cells after 48 hrs by sulforhodamine B assay; type: functional
MDA-MB-231 = experiment: Growth inhibition of human MDA-MB-231 cells after 48 hrs by sulforhodamine B assay; type: functional; details: MDA-MB-231, 48 h
MCF7 = experiment: Growth inhibition of human MCF7 cells after 48 hrs by sulforhodamine B assay; type: functional; details: MCF7, 48 h
SF-539 = experiment: Growth inhibition of human SF539 cells after 48 hrs by sulforhodamine B assay; type: functional; details: SF-539, 48 h
SNB-75 = experiment: Growth inhibition of human SNB75 cells after 48 hrs by sulforhodamine B assay; type: functional; details: SNB-75, 48 h
SF-295 = experiment: Growth inhibition of human SF295 cells after 48 hrs by sulforhodamine B assay; type: functional; details: SF-295, 48 h
SF-268 = experiment: Growth inhibition of human SF268 cells after 48 hrs by sulforhodamine B assay; type: functional; details: SF-268, 48 h
PC-3 = experiment: Growth inhibition of human PC3 cells after 48 hrs by sulforhodamine B assay; type: functional; details: PC-3, 48 h
TK-10 = experiment: Growth inhibition of human TK10 cells after 48 hrs by sulforhodamine B assay; type: functional; details: TK-10, 48 h
DU-145 = experiment: Growth inhibition of human DU145 cells after 48 hrs by sulforhodamine B assay; type: functional; details: DU-145, 48 h
ACHN = experiment: Growth inhibition of human ACHN cells after 48 hrs by sulforhodamine B assay; type: functional
786-0 = experiment: Growth inhibition of human 786-0 cells after 48 hrs by sulforhodamine B assay; type: functional; details: 786-0, 48 h
UO-31 = experiment: Growth inhibition of human UO31 cells after 48 hrs by sulforhodamine B assay; type: functional; details: UO-31, 48 h
RXF 393 = experiment: Growth inhibition of human RXF393 cells after 48 hrs by sulforhodamine B assay; type: functional; details: RXF 393, 48 h
SN12C = experiment: Growth inhibition of human SN12C cells after 48 hrs by sulforhodamine B assay; type: functional
CAKI-1 = experiment: Growth inhibition of human CAKI-1 cells after 48 hrs by sulforhodamine B assay; type: functional; details: CAKI-1, 48 h
A498 = experiment: Growth inhibition of human A498 cells after 48 hrs by sulforhodamine B assay; type: functional; details: A498, 48 h
IGROV-1 = experiment: Growth inhibition of human IGROV1 cells after 48 hrs by sulforhodamine B assay; type: functional; details: IGROV-1, 48 h
SK-OV-3 = experiment: Growth inhibition of human SKOV3 cells after 48 hrs by sulforhodamine B assay; type: functional; details: SK-OV-3, 48 h
[2] = Growth inhibition of human NCI-ADR-RES cells after 48 hrs by sulforhodamine B assay; type: functional
OVCAR-8 = experiment: Growth inhibition of human OVCAR8 cells after 48 hrs by sulforhodamine B assay; type: functional; details: OVCAR-8, 48 h
OVCAR-5 = experiment: Growth inhibition of human OVCAR5 cells after 48 hrs by sulforhodamine B assay; type: functional; details: OVCAR-5, 48 h
OVCAR-4 = experiment: Growth inhibition of human OVCAR4 cells after 48 hrs by sulforhodamine B assay; type: functional; details: OVCAR-4, 48 h
OVCAR-3 = experiment: Growth inhibition of human OVCAR3 cells after 48 hrs by sulforhodamine B assay; type: functional; details: OVCAR-3, 48 h
SK-MEL-5 = experiment: Growth inhibition of human SK-MEL-5 cells after 48 hrs by sulforhodamine B assay; type: functional; details: SK-MEL-5, 48 h
UACC-257 = experiment: Growth inhibition of human UACC257 cells after 48 hrs by sulforhodamine B assay; type: functional; details: UACC-257, 48 h
Malme-3M = experiment: Growth inhibition of human MALME-3M cells after 48 hrs by sulforhodamine B assay; type: functional
LOX IMVI = experiment: Growth inhibition of human LOXIMVI cells after 48 hrs by sulforhodamine B assay; type: functional
UACC-62 = experiment: Growth inhibition of human UACC62 cells after 48 hrs by sulforhodamine B assay; type: functional; details: UACC-62, 48 h
SK-MEL-28 = experiment: Growth inhibition of human SK-MEL-28 cells after 48 hrs by sulforhodamine B assay; type: functional; details: SK-MEL-28, 48 h
SK-MEL-2 = experiment: Growth inhibition of human SK-MEL-2 cells after 48 hrs by sulforhodamine B assay; type: functional; details: SK-MEL-2, 48 h
MDA-MB-435 = experiment: Growth inhibition of human MDA-MB-435 cells after 48 hrs by sulforhodamine B assay; type: functional; details: MDA-MB-435, 48 h
M14 = experiment: Growth inhibition of human M14 cells after 48 hrs by sulforhodamine B assay; type: functional; details: M14, 48 h
SW-620 = experiment: Growth inhibition of human SW620 cells after 48 hrs by sulforhodamine B assay; type: functional; details: SW-620, 48 h
KM12 = experiment: Growth inhibition of human KM12 cells after 48 hrs by sulforhodamine B assay; type: functional; details: KM12, 48 h
HT-29 = experiment: Growth inhibition of human HT-29 cells after 48 hrs by sulforhodamine B assay; type: functional; details: HT-29, 48 h
HCT-116 = experiment: Growth inhibition of human HCT116 cells after 48 hrs by sulforhodamine B assay; type: functional; details: HCT-116, 48 h
HCT-15 = experiment: Growth inhibition of human HCT15 cells after 48 hrs by sulforhodamine B assay; type: functional; details: HCT-15, 48 h
[3] = Growth inhibition of human HCC2998 cells after 48 hrs by sulforhodamine B assay; type: functional; details: HCC 2998, 48 h

Work on `COc1c(F)ccc(C(=O)N2c3ccccc3Sc3ccccc32)c1F` yielded a GI50 (NCI-H522) of 2.7 µM, a GI50 (COLO 205) of 6.47 µM and a GI50 (NCI-H460) of 3.67 µM. The GI50 (NCI-H23) was 4.89 µM, the GI50 (HOP-62) was 8.37 µM and the GI50 (A549) was 4.07 µM. It also gave a GI50 (SR) of 2.33 µM, a GI50 (RPMI-8226) of 3.22 µM and a GI50 (MOLT-4) of 4.29 µM. For the same compound, the GI50 (K562) was 3.24 µM, the GI50 (HL-60(TB)) was 3.99 µM and the GI50 (CCRF-CEM) was 5 µM. It also gave an inhibition (Ovis aries) of 10%, a GI50 (T47D) of 5.24 µM and a GI50 (MDA-MB-468) of 1.7 µM. For the same compound, the GI50 (BT-549) was 5.21 µM, the GI50 [1] was 6.92 µM and the GI50 (MDA-MB-231) was 3.66 µM. The GI50 (MCF7) was 5.5 µM, the GI50 (SF-539) was 5.03 µM and the GI50 (SNB-75) was 2.32 µM. For the same compound, the GI50 (SF-295) was 6.1 µM, the GI50 (SF-268) was 6.5 µM and the GI50 (PC-3) was 2.84 µM. It also gave a GI50 (TK-10) of 10.2 µM, a GI50 (DU-145) of 14 µM and a GI50 (ACHN) of 7.96 µM. It also gave a GI50 (786-0) of 7.57 µM, a GI50 (UO-31) of 6.52 µM and a GI50 (RXF 393) of 2.29 µM. For the same compound, the GI50 (SN12C) was 6.07 µM, the GI50 (CAKI-1) was 4.01 µM and the GI50 (A498) was 2.22 µM. The GI50 (IGROV-1) was 4.87 µM, the GI50 (SK-OV-3) was 12.2 µM and the GI50 [2] was 2.97 µM. For the same compound, the GI50 (OVCAR-8) was 10 µM, the GI50 (OVCAR-5) was 24.1 µM and the GI50 (OVCAR-4) was 10.3 µM. It also gave a GI50 (OVCAR-3) of 4.2 µM, a GI50 (SK-MEL-5) of 2.95 µM and a GI50 (UACC-257) of 6.51 µM. For the same compound, the GI50 (Malme-3M) was 3.09 µM, the GI50 (LOX IMVI) was 4.72 µM and the GI50 (UACC-62) was 2.68 µM. It also gave a GI50 (SK-MEL-28) of 4.93 µM, a GI50 (SK-MEL-2) of 3.45 µM and a GI50 (MDA-MB-435) of 1.8 µM. It also gave a GI50 (M14) of 3.86 µM, a GI50 (SW-620) of 3.68 µM and a GI50 (KM12) of 4.01 µM. For the same compound, the GI50 (HT-29) was 3.24 µM, the GI50 (HCT-116) was 3.6 µM and the GI50 (HCT-15) was 3.07 µM. For the same compound, the GI50 [3] was 11.7 µM.

In the case of `CN(C)Cc1cn(C(=O)N2c3ccccc3Sc3ccccc32)c2ccccc12`, the GI50 (NCI-H522) is reported as 1.9 µM, the GI50 (COLO 205) is reported as 1.85 µM and the GI50 (NCI-H460) is reported as 1.81 µM. For the same compound, the GI50 (NCI-H23) was 4.85 µM, the GI50 (HOP-62) was 1.68 µM and the GI50 (A549) was 1.68 µM. The GI50 (SR) was 1.76 µM, the GI50 (RPMI-8226) was 1.84 µM and the GI50 (MOLT-4) was 2.13 µM. It also gave a GI50 (K562) of 1.95 µM, a GI50 (HL-60(TB)) of 2.22 µM and a GI50 (CCRF-CEM) of 2 µM. The inhibition (Ovis aries) was 9%, the GI50 (T47D) was 2.04 µM and the GI50 (MDA-MB-468) was 1.16 µM. It also gave a GI50 (BT-549) of 2.96 µM, a GI50 [1] of 2.08 µM and a GI50 (MDA-MB-231) of 1.17 µM. It also gave a GI50 (MCF7) of 1.79 µM, a GI50 (SF-539) of 1.64 µM and a GI50 (SNB-75) of 1.65 µM. It also gave a GI50 (SF-295) of 1.75 µM, a GI50 (SF-268) of 2.92 µM and a GI50 (PC-3) of 1.62 µM. For the same compound, the GI50 (TK-10) was 1.73 µM, the GI50 (DU-145) was 1.98 µM and the GI50 (ACHN) was 1.5 µM. It also gave a GI50 (786-0) of 1.75 µM, a GI50 (UO-31) of 1.61 µM and a GI50 (RXF 393) of 1.21 µM. For the same compound, the GI50 (SN12C) was 1.98 µM, the GI50 (CAKI-1) was 1.53 µM and the GI50 (A498) was 1.24 µM. It also gave a GI50 (IGROV-1) of 1.73 µM, a GI50 (SK-OV-3) of 2.02 µM and a GI50 [2] of 2.53 µM. The GI50 (OVCAR-8) was 1.78 µM, the GI50 (OVCAR-5) was 1.5 µM and the GI50 (OVCAR-4) was 2.04 µM. It also gave a GI50 (OVCAR-3) of 1.95 µM, a GI50 (SK-MEL-5) of 1.6 µM and a GI50 (UACC-257) of 1.6 µM. For the same compound, the GI50 (Malme-3M) was 1.99 µM, the GI50 (LOX IMVI) was 1.8 µM and the GI50 (UACC-62) was 1.72 µM. It also gave a GI50 (SK-MEL-28) of 1.72 µM, a GI50 (SK-MEL-2) of 2.23 µM and a GI50 (MDA-MB-435) of 1.74 µM. For the same compound, the GI50 (M14) was 1.97 µM, the GI50 (SW-620) was 1.84 µM and the GI50 (KM12) was 1.89 µM. The GI50 (HT-29) was 1.79 µM, the GI50 (HCT-116) was 1.74 µM and the GI50 (HCT-15) was 1.7 µM. For the same compound, the GI50 [3] was 1.85 µM.
